The values that follow are results of earlier work, collected in patent US9877974B2, “Topical formulations comprising a steroid” (Dr. Reddy's Laboratories Ltd., priority 2009, dated 2018).

Each structure is given as a SMILES string.

In the case of `CCC(=O)OCC(=O)[C@@]1(OC(=O)CC)[C@@H](C)C[C@H]2[C@@H]3CCC4=CC(=O)C=C[C@]4(C)[C@@]3(F)[C@@H](O)C[C@@]21C` [Betamethasone dipropionate, 9-fluoro-11(β),17,21-trihydroxy-16(β)-methylpregna-1,4-diene-3,20-dione 17,21-dipropionate], where the note is “acetone”, the Solubility in acetone entry is “freely soluble”. Besides, the Solubility in chloroform result (chloroform) is “freely soluble”. Also, the Solubility in ethanol entry (ethanol) was “sparingly soluble”. The Solubility in water entry (water) was “practically insoluble”.
